This passage reports Ki and elimination half-life results from patent US9296681B2, “Cycloalkylmethylamines” (Reviva Pharmaceuticals, Inc., priority 2006, dated 2016).

Data set [1] concerns the target human recombinant serotonin transporter (SERT) (Homo sapiens (Human), UniProt P31645). The data set is described as follows: radioligand binding assay, serotonin transporter. To be noted: 11 test concentrations, duplicates. Here is the method:
(§1) The monoamine transporters inhibitory activities of selected compounds cycloalkylmethylamine derivatives comprising Formula (I) are reported herein. The compounds were evaluated using well established radioligand binding assays protocols (Galli, A. et al., J. Exp. Biol. 1995, 198, 2197-2212; Giros, B. et al., Trends Pharmcol. Sci. 1993, 14, 43-49; Gu, H. et al., J. Biol. Chem. 1994, 269(10), 7124-7130; Shearman, L. P. et al, Am. J. Physiol., 1998, 275 (6 Pt 1), C1621-1629; Wolf, W. A. et al., J. Biol. Chem. 1992, 267(29), 20820-20825). The human recombinant transporter proteins dopamine (DAT), norepinephrine (NET) and serotonin (SERT) were selected for the in vitro assays. The radioligand binding assays were carried out at 11 different test concentrations […] to 1 μM.
(§2) The assays were carried out in duplicates and the quantitative data are reported as Ki in the TABLE 1.

Data set [2] addresses human recombinant dopamine transporter (DAT) (Homo sapiens (Human), UniProt Q01959). The data set is described as follows: radioligand binding assay, dopamine transporter. To be noted: 11 test concentrations, duplicates. On the procedure:
as §1, §2

Data set [3] has as its target human recombinant norepinephrine transporter (NET) (Homo sapiens (Human), UniProt P23975). The experiment in a line: radioligand binding assay, norepinephrine transporter. To be noted: 11 test concentrations, duplicates. On the procedure: as §1, §2
The conditions of data set [4]: active metabolites of sibutramine; cited from earlier work.

Sequence of human recombinant dopamine transporter (DAT) (Q01959 whole entry): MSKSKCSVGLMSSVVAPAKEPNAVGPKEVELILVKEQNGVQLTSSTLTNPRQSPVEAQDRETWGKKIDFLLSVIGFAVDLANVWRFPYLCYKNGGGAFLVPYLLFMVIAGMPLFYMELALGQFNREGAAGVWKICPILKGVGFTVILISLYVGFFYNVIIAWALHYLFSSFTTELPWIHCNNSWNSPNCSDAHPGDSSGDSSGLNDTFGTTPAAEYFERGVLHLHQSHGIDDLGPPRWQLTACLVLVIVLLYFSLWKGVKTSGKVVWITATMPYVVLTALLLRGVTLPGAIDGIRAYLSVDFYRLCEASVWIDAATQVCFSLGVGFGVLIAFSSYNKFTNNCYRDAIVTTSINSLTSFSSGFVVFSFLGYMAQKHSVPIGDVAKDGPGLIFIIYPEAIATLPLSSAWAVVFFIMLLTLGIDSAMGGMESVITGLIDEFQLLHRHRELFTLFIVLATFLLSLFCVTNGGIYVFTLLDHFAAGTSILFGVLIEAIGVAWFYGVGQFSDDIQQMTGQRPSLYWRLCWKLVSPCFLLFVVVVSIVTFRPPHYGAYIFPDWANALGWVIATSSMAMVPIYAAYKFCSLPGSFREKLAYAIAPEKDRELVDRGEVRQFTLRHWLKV
Sequence of human recombinant norepinephrine transporter (NET) (P23975 whole entry): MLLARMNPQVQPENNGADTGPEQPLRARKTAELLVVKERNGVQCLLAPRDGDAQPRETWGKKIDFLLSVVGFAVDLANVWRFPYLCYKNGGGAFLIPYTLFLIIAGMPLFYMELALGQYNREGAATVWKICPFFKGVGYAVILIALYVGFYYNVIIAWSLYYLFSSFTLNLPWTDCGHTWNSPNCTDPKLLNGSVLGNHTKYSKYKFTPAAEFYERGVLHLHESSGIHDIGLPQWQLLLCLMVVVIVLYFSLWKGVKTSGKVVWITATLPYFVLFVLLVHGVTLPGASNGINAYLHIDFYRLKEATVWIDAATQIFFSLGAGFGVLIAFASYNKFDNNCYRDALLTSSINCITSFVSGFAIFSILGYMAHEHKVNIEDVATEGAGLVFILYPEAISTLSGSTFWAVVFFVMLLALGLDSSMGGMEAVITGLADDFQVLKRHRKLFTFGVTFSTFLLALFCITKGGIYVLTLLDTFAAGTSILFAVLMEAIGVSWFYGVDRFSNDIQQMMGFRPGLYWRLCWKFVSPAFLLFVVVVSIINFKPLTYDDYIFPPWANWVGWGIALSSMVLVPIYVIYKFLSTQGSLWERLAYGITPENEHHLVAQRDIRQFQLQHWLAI

In the case of `CC(C)C[C@@H](NCCCC(N)=O)C1(c2ccc(Cl)c(Cl)c2)CCC1` (single isomer, unassigned; isomer-1) [33a-(R)-Isomer], the results for the Ki in data set [1], in data set [2] and in data set [3] were 2.3 nM, 0.91 nM and 30.3 nM, respectively.

As for `CNC(CC(C)C)C1(c2ccc(Cl)cc2)CCC1` (centres unmarked) [Compound M1], in data set [4], the elimination half-life was 14 h.

In the case of `CC(C)CC(NCCCC(N)=O)C1(c2ccc(Cl)c(Cl)c2)CCC1` (racemic) [Compound 33a-Racemic], the Ki in data set [1] was determined as 8.1 nM; in data set [2], 1.5 nM; in data set [3], 50.1 nM.

As to `CC(C)CC(N)C1(c2ccc(Cl)cc2)CCC1` (centres unmarked) [Compound M2], the elimination half-life in data set [4] was 16 h.

In the case of `CCOc1ccc(C2(C(CC(C)C)NCCCC(N)=O)CCC2)cc1` (racemic) [Compound 33b-Racemic], the values for the Ki in data set [1], in data set [2] and in data set [3] were 5.49 nM, 472 nM and greater than 10000 nM, respectively.

Turning to `CC(C)C[C@H](NCCCC(N)=O)C1(c2ccc(Cl)c(Cl)c2)CCC1` (single isomer, unassigned; isomer-2) [33a-(S)-Isomer], the inhibition constant (Ki) in data set [1] turned out to be 300 nM; in data set [2] it was 126 nM; in data set [3] it was 3420 nM.

The Ki is the dissociation constant of the complex between target and ligand, obtained from inhibition or displacement.
